Experiment [1] has as its system TNF-α. The experiment can be described thus: TNF-α secretion inhibition in LPS-treated THP-1 cells (ELISA). It is filed as cell-based. The note with it: Homo sapiens, compound 0.5 μM, LPS 500 ng/ml, 24 hours, read-out: THP-1/TNF-a (% inhib). Put shortly: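 Human monocytic THP-1 cells were pre-cultured 16 h at 37° C., then treated with compound at 0.5 μM final, followed by LPS at 500 ng/ml final. After 24 h, IL-6 and TNF-α in culture supernatant were quantified by ELISA with absorbance read at 450 nm.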

For experiment [2], the system named is THP-1. The experiment can be described thus: THP-1 GI50 (Table 4, method not given). The note with it: Homo sapiens; THP-1 cells. The class given is cell-based.
Experiment [3] relates to human DYRK1A and Tau. The experiment can be described thus: Tau phosphorylation inhibition, ClariCELL Kinase Cell-Based Assay (Carnabio). Put shortly: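 HEK293 cells transiently expressing human DYRK1A and Tau were exposed to compound, then lysed. Released Tau was captured on plate and its phosphorylation quantified by ELISA with a phospho-Tau-specific antibody.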
In experiment [4] the target is T1, LRRK2, LRRK2 (G2019S), DYRK1, CLK1 and TTK kinases (Homo sapiens, UniProt P49759).
T1 construct: CLK1 IC50 (marked with *); other: CLK1; Kinase HotSpot service (Reaction Biology), ATP 10 uM
Kind of experiment: Enzyme IC50 by Kinase HotSpot service (Reaction Biology Corporation), values marked with *. The class given is biochemical. The note with it: CLK1, ATP 10 uM. Put shortly:
(§1)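 Radiometric-service kinase assays (Reaction Biology HotSpot protocol) run at 10 uM ATP under uniform conditions. Compounds tested as 3-fold dilution series from a top concentration of […] to give IC50.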

Experiment [5] addresses T2, LRRK2, LRRK2 (G2019S), DYRK1, CLK1 and TTK kinases (Homo sapiens, UniProt Q5S007).
T2 construct: LRRK2 IC50 (marked with *); other: LRRK2; Kinase HotSpot service (Reaction Biology), ATP 10 uM
Described as above. The class given is biochemical. The note with it: LRRK2, ATP 10 uM. In outline: as §1

Bounds are passed on as bounds.

T1 sequence (P49759 whole entry, stated change not applied): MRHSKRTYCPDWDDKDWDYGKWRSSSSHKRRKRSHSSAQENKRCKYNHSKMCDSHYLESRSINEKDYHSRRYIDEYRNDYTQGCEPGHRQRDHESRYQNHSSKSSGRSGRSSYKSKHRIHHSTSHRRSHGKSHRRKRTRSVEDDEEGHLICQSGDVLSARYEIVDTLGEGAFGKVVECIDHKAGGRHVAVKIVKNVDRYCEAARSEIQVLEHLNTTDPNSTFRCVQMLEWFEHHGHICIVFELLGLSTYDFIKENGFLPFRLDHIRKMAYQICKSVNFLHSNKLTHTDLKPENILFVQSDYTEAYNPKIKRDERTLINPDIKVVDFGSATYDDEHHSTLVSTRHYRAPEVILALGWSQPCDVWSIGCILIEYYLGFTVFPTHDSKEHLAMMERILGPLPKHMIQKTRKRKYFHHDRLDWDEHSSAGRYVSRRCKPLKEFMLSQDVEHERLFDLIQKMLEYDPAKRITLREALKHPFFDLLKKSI
T2 sequence (Q5S007 whole entry G2019S): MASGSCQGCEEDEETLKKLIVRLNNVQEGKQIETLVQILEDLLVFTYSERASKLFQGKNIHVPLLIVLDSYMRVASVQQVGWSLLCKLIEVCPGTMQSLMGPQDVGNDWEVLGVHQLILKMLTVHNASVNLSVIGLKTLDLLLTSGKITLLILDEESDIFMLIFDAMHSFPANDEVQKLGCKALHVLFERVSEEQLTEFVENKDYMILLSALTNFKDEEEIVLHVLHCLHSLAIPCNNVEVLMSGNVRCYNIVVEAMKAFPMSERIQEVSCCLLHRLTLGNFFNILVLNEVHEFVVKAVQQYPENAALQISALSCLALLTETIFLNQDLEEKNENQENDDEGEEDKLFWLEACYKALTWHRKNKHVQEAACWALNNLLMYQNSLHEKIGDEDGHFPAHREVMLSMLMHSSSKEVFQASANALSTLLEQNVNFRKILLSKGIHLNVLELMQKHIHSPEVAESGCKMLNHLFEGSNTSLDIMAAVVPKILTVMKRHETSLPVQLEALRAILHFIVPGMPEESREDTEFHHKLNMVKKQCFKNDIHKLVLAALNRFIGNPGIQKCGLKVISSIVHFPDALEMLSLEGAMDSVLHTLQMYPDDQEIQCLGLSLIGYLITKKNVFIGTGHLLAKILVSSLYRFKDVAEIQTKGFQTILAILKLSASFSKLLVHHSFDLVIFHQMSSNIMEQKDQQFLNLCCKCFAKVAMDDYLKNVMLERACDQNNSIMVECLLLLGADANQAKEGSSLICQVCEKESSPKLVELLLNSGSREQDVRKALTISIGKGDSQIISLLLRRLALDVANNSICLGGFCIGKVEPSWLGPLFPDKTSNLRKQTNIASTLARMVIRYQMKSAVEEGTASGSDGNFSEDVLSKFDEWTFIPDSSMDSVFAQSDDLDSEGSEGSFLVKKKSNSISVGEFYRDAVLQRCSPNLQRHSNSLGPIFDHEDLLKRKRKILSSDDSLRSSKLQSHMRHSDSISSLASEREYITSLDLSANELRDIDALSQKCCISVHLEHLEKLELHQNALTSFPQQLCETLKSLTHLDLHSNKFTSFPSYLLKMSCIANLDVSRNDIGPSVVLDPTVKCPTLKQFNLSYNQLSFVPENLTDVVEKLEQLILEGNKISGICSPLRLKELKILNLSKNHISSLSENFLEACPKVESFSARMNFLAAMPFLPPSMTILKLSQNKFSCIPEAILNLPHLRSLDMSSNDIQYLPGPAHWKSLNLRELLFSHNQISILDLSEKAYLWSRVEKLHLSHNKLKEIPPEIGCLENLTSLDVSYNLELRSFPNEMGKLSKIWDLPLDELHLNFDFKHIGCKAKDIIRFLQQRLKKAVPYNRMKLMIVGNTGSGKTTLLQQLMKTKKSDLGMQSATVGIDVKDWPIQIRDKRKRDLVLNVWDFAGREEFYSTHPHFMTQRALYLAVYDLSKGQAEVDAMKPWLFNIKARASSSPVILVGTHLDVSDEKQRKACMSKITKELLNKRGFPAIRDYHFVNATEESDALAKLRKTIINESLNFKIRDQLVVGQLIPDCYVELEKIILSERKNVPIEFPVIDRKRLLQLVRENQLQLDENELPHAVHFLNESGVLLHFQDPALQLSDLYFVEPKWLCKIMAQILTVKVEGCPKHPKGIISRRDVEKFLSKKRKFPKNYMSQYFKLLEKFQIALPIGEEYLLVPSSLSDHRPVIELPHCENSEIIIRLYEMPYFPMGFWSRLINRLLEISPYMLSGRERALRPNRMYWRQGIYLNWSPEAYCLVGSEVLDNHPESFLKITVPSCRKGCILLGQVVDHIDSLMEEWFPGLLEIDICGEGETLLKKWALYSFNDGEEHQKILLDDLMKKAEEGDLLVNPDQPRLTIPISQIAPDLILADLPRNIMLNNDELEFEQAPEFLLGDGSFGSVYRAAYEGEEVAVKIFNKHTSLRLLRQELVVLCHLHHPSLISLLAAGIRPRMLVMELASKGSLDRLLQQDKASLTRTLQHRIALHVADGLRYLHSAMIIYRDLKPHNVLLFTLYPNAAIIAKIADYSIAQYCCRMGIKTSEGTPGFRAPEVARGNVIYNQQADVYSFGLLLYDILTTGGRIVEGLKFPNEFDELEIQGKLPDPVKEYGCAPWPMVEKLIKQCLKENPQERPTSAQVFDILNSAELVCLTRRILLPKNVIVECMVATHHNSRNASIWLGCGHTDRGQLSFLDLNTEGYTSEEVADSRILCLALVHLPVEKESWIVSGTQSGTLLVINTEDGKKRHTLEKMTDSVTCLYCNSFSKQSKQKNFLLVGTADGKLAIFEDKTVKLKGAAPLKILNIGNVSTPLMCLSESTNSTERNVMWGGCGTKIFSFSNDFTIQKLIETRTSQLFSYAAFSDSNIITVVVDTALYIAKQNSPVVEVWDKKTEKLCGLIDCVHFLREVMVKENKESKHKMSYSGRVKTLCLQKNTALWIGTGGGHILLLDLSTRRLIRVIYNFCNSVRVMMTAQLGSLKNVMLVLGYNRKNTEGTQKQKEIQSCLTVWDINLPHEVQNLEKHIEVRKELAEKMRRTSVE

For `CCNc1cc(Nc2ccc(C(=O)N3CCC(N4CCOCC4)CC3)c3c2OCO3)nc2[nH]cc(C(F)(F)F)c12` [Example 37, (7-((4-(ethylamino)-3-(trifluoromethyl)-1H-pyrrolo[2,3-b]pyridin-6-yl)amino)benzo[d][1,3]dioxol-4-yl)(4-morpholinopiperidin-1-yl)methanone], in experiment [1], the inhibition at 0.5 µM amounted to 100%. Also, halving of growth in experiment [2] (GI50) required 14400 nM.
The like results for `CCNc1cc(Nc2ccc(P3(=O)CCN(C(C)=O)CC3)cc2OC)nc2[nH]cc(C(F)(F)F)c12` [Example 42, 1-(4-(4-((4-(ethylamino)-3-(trifluoromethyl)-1H-pyrrolo[2,3-b]pyridin-6-yl)amino)-3-methoxyphenyl)-4-oxido-1,4-azaphosphinan-1-yl)ethan-1-one] were, in that order, 35.7% and 16300 nM.
The like results for `CCNc1cc(Nc2ccc(C(=O)N3C[C@@H]4C[C@H]3CO4)c3c2OCCO3)nc2[nH]cc(C(F)(F)F)c12` [Example 44, ((1S,4S)-2-oxa-5-azabicyclo[2.2.1]heptan-5-yl)(8-((4-(ethylamino)-3-(trifluoromethyl)-1H-pyrrolo[2,3-b]pyridin-6-yl)amino)-2,3-dihydrobenzo[b] [1,4]dioxin-5-yl)methanone] were, in that order, 100% and 146000 nM.
`O=C(c1ccc(Nc2cc(C3CC3)c3c(C(F)(F)F)c[nH]c3n2)c2c1CCO2)N1CCOCC1` [Example 91, (7-((4-cyclopropyl-3-(trifluoromethyl)-1H-pyrrolo[2,3-b]pyridin-6-yl)amino)-2,3-dihydrobenzofuran-4-yl)(morpholino) methanone]: the inhibition at 0.5 µM in experiment [1] was determined as 9.6%. In experiment [3], the inhibition at 0.25 µM came to 12.9%, the inhibition at 0.5 µM turned out to be 33.1% and the inhibition at 1 µM is 44.3%. For the same molecule, the IC50 in experiment [4] is < 100 nM.
In the case of `CNc1cc(Nc2ccc(S(=O)(=O)N3CCC(N4CCOCC4)CC3)cc2OC)nc2[nH]cc(C(F)(F)F)c12` [Example 184, N^6-(2-methoxy-4-((4-morpholinopiperidin-1-yl)sulfonyl)phenyl)-N^4-methyl-3-(trifluoromethyl)-1H-pyrrolo[2,3-b]pyridine-4,6-diamine], in experiment [3], the inhibition at 0.25 µM was determined as 28.5%, the inhibition at 0.5 µM was 58.2% and the inhibition at 1 µM was 76.1%. For the same molecule, in experiment [4], the concentration for half-maximal inhibition (IC50) was < 100 nM. The IC50 in experiment [5] is < 100 nM.
As to `COCCNc1cc(Nc2ccc(P3(=O)CCN(C4CC4)CC3)cc2OC)nc2[nH]cc(C(F)(F)F)c12` [Example 207, 1-cyclopropyl-4-(3-methoxy-4-((4-((2-methoxyethyl)amino)-3-(trifluoromethyl)-1H-pyrrolo[2,3-b]pyridin-6-yl)amino)phenyl)-1,4-azaphosphinane 4-oxide], in experiment [1], the inhibition at 0.5 µM was determined as 39.8%. Moreover, in experiment [2], the GI50 was 9390 nM.
Take `O=C(c1ccc(Nc2cc(C3CC3)c3c(C(F)(F)F)c[nH]c3n2)c2c1CCO2)N1CC[C@H](N2CCOCC2)C1` [Example 237, (S)-(7-((4-cyclopropyl-3-(trifluoromethyl)-1H-pyrrolo[2,3-b]pyridin-6-yl)amino)-2,3-dihydrobenzofuran-4-yl)(3-morpholinopyrrolidin-1-yl)methanone]: in experiment [3], the inhibition at 0.25 µM was 7.7%, the inhibition at 0.5 µM stood at 20.5% and the inhibition at 1 µM was determined as 34.5%. In addition, the IC50 in experiment [4] was < 100 nM. This molecule yielded an IC50 in experiment [5] of 101 to 300 nM.
In experiment [3], `O=C(c1ccc(Nc2cc(C3CC3)c3c(C(F)(F)F)c[nH]c3n2)c2c1CCO2)N1CC[C@@H](N2CCOCC2)C1` [Example 238, (R)-(7-((4-cyclopropyl-3-(trifluoromethyl)-1H-pyrrolo[2,3-b]pyridin-6-yl)amino)-2,3-dihydrobenzofuran-4-yl)(3-morpholinopyrrolidin-1-yl)methanone] displayed an inhibition at 0.25 µM of 9.8%, an inhibition at 0.5 µM of 26.4% and an inhibition at 1 µM of 48.3%. Moreover, the concentration for half-maximal inhibition (IC50) in experiment [4] is < 100 nM. The IC50 in experiment [5] fell in the range of 101 to 300 nM.

The term GI50 denotes the concentration giving 50% growth inhibition. A higher GI50 goes with lower sensitivity of the cells. In general, IC50 refers to the concentration at which inhibition is half-maximal.

Values taken from patent US12240844B2 (Voronoi, Inc., priority 2019, dated 2025).
